# Data reported in patent US20170114049A1, “2,5-DISUBSTITUTED CYCLOPENTANE CARBOXYLIC ACIDS FOR THE TREATMENT OF RESPIRATORY TRACT DISEASES” (BAYER PHARMA AKTIENGESELLSCHAFT, priority 2014, published 2017).
# Columns and labels:
# Format in all cases: biochemical
# MMP-3 = molecular target: T1, MMP-3 (Homo sapiens, UniProt P08254); experiment: In vitro MMP-3 inhibition test
# T1 construct: purchased R&D Systems 513-MP
# Text: (§1) The MMP-mediated amidolytic cleavage of a suitable peptide substrate leads to an increase in fluorescent light here too. The signal intensity of the fluorescent light is directly proportional to the enzyme activity. The active concentration of a test compound at which half the enzyme is inhibited (50% signal intensity of the fluorescent light) is reported as the […].
# (§2) Recombinant MMP-3 (from R&D Systems, 513-MP) is chemically activated in accordance with the manufacturer's instructions using APMA. 1 μl of the test compound to be analysed (as a solution in DMSO, suitable concentrations, for example, 1 nM to 30 μM) is pipetted into 24 μl of activated enzyme (final concentration, for example, 2 nM) in reaction buffer (50 mM Tris/HCl pH 7.5, 10 mM CaCl2, 150 mM NaCl, 0.05% Brij®-35) in a white 384-hole microtiter plate (MTP). The enzymatic reaction is started by adding the intramolecularly quenched Mca-Arg-Pro-Lys-Pro-Val-Glu-Nval-Trp-Arg-Lys(Dnp)-NH2 substrate (final concentration, for example, 10 μM; R&D Systems, ES-002), so as to result in a total test volume of 50 μl. The course of the MMP-3 reaction is measured by measuring the fluorescence intensity (excitation 320 nm, emission 410 nm) over a suitable period of time (for example over 120 min at a temperature of 32° C.).
# MMP-10 = molecular target: T2, MMP-10 (Homo sapiens, UniProt P09238); experiment: In vitro MMP-10 inhibition test
# T2 construct: purchased R&D Systems 910-MP
# T2 sequence (P09238 99-476): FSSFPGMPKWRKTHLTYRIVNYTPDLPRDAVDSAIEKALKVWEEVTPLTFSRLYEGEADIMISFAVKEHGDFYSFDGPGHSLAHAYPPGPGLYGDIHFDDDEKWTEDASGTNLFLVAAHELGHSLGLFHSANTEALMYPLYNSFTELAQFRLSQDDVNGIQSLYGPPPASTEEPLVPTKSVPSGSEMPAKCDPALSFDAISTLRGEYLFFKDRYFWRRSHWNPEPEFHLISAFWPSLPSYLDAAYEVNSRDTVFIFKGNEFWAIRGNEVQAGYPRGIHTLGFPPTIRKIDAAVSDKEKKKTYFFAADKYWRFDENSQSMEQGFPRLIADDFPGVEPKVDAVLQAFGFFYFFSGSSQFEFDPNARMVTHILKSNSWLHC
# Text: as §1
# as §2, with “MMP-10” for “MMP-3”, “910-MP)” for “513-MP)”
# mouse MMP-8 = molecular target: T3, mouse MMP-8 (Mus musculus, UniProt O70138); experiment: In vitro mouse MMP-8 inhibition test
# T3 construct: purchased R&D Systems 2904-MP
# T3 sequence (O70138 101-465): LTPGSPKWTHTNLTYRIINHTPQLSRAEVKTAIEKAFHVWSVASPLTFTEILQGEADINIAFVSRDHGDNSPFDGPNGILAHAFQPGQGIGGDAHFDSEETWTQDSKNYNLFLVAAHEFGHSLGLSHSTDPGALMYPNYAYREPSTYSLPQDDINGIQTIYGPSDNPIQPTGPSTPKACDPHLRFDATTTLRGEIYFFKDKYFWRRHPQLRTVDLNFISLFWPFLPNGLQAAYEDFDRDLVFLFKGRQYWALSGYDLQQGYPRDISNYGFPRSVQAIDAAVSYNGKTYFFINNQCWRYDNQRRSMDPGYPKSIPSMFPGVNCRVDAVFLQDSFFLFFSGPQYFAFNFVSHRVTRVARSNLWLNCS
# MMP-2 = molecular target: T4, MMP-2 (Homo sapiens, UniProt P08253); experiment: In vitro MMP-2 inhibition test
# T4 construct: purchased R&D Systems 902-MP
# T4 sequence (P08253 110-660): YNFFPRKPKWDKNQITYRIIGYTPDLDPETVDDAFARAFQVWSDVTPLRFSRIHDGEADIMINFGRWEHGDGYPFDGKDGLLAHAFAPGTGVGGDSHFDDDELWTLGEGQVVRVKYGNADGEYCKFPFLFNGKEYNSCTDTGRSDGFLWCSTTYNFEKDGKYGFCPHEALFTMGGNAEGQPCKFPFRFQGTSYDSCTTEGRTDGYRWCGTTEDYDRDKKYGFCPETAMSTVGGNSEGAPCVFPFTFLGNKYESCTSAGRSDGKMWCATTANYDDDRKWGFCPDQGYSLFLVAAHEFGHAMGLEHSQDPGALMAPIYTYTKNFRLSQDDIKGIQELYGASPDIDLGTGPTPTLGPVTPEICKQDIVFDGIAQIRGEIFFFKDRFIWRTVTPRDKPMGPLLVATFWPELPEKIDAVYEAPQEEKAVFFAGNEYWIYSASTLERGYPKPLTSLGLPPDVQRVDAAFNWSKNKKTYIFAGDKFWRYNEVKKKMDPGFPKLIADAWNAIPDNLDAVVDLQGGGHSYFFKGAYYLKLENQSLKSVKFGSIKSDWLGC
# Text: as §1
# as §2, with “MMP-2” for “MMP-3”, “902-MP)” for “513-MP)”, “Mca-Pro-Leu-Gly-Leu-Dpa(Dnp)-Ala-Arg-NH2” for “Mca-Arg-Pro-Lys-Pro-Val-Glu-Nval-Trp-Arg-Lys(Dnp)-NH2”, “ES-001),” for “ES-002),”
# mouse MMP-12 = molecular target: T5, mouse MMP-12 (Mus musculus, UniProt P34960); experiment: In vitro mouse MMP-12 inhibition test (standard or high-sensitivity)
# T5 construct: purchased R&D Systems 3467-MP
# T5 sequence (P34960 110-473): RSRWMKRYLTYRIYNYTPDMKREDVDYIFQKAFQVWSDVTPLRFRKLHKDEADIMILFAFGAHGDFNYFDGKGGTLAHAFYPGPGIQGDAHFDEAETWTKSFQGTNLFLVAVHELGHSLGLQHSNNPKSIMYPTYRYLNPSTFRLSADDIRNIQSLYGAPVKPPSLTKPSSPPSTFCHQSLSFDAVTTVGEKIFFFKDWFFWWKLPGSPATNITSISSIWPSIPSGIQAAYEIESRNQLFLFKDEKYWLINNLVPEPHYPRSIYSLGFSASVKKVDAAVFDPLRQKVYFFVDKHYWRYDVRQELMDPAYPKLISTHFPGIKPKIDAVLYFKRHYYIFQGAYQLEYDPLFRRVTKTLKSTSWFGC
# Text: as §1
# Recombinant mouse MMP-12 (from R&D Systems, 3467-MP) is autocatalytically activated in accordance with the manufacturer's instructions. 1 μl of the test compound to be analysed (as a solution in DMSO, suitable concentrations, for example, 1 nM to 30 μM) is pipetted into 24 μl of activated enzyme (final concentration, for example, 1 nM) in reaction buffer (50 mM Tris/HCl pH 7.5, 10 mM CaCl2, 150 mM NaCl, 0.05% Brij®-35) in a white 384-hole microtiter plate (MTP). The enzymatic reaction is started by adding the intramolecularly quenched Mca-Lys-Pro-Leu-Gly-Leu-Dpa(Dnp)-Ala-Arg-NH2 substrate (final concentration, for example, 5 μM; R&D Systems, ES-010), so as to result in a total test volume of 50 μl. The course of the MMP-12 reaction is measured by measuring the fluorescence intensity (excitation 320 nm, emission 410 nm) over a suitable period of time (for example over 120 min at a temperature of 32° C.).
# In this case, an enzyme concentration ten times lower is used (final concentration, for example, 0.1 nM) in order to achieve an elevated test sensitivity. The incubation period chosen for the test is correspondingly longer (for example 16 hours).
# T1 sequence (P08254 100-477): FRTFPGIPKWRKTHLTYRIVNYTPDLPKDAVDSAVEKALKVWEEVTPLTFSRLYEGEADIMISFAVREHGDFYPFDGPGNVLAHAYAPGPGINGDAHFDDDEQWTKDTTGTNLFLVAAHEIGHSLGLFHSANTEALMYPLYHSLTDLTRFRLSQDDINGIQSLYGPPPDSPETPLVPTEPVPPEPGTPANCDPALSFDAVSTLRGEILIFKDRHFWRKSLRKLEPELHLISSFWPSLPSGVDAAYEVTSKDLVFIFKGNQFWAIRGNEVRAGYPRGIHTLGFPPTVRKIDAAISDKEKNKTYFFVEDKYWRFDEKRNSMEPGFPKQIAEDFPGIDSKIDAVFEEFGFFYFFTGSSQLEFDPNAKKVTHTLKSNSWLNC
Compound,IC50 (MMP-3),IC50 (MMP-10),IC50 (mouse MMP-8),IC50 (MMP-2),IC50 (mouse MMP-12)
"O=C(O)[C@@H]1[C@@H](Cn2nnc3ccccc3c2=O)CC[C@H]1C(=O)c1ccc(OCCC2CCOCC2)cc1 (single isomer, unassigned) [Example 5, (+)-(1RS,2SR,5RS)-2-[(4-Oxo-1,2,3-benzotriazin-3(4H)-yl)methyl]-5-{4-[2-(tetrahydro-2H-pyran-4-yl)ethoxy]benzoyl}cyclopentanecarboxylic acid]",360 nM,13 nM,54 nM,44 nM,0.67 nM
"O=C(O)[C@@H]1[C@@H](Cn2nnc3ccc(C(F)(F)F)cc3c2=O)CC[C@H]1C(=O)c1ccc(OCCC2CCOCC2)cc1 (single isomer, unassigned) [Example 11, (+)-(1RS,2SR,5RS)-2-{[4-Oxo-6-(trifluoromethyl)-1,2,3-benzotriazin-3(4H)-yl]methyl}-5-{4-[2-(tetrahydro-2H-pyran-4-yl)ethoxy]benzoyl}cyclopentanecarboxylic acid]",260 nM,18 nM,34 nM,510 nM,9.4 nM
"O=C(O)[C@@H]1[C@@H](Cn2nnc3ccccc3c2=O)CC[C@H]1C(=O)c1ccc(OCC2CCOCC2)cc1 (stereo in doubt) [Example 2, (+)-(1RS,2SR,5RS)-2-[(4-Oxo-1,2,3-benzotriazin-3(4H)-yl)methyl]-5-[4-(tetrahydro-2H-pyran-4-ylmethoxy)benzoyl]cyclopentanecarboxylic acid]",710 nM,80 nM,21 nM,60 nM,0.85 nM
"Cc1ccc2nnn(C[C@H]3CC[C@@H](C(=O)c4ccc(OCCC5CCOCC5)cc4)[C@@H]3C(=O)O)c(=O)c2c1 (single isomer, unassigned) [Example 20, (+)-(1RS,2SR,5RS)-2-[(6-Methyl-4-oxo-1,2,3-benzotriazin-3(4H)-yl)methyl]-5-{4-[2-(tetrahydro-2H-pyran-4-yl)ethoxy]benzoyl}cyclopentanecarboxylic acid]",440 nM,31 nM,46 nM,300 nM,1.7 nM
"(+)-(1RS,2SR,5RS)-2-{[4-Oxo-6-(trifluoromethyl)-1,2,3-benzotriazin-3(4H)-yl]methyl}-5-[4-(tetra-hydro-2H-pyran-4-ylmethoxy)benzoyl]cyclopentanecarboxylic acid [Example 8]",100 nM,12 nM,,140 nM,
"O=C(O)[C@H]1[C@H](Cn2nnc3ccc(C(F)(F)F)cc3c2=O)CC[C@@H]1C(=O)c1ccc(OCC2CCOCC2)cc1 (racemic) [Example 7, (+/−)-(1RS,2SR,5RS)-2-{[4-Oxo-6-(trifluoromethyl)-1,2,3-benzotriazin-3(4H)-yl]methyl}-5-[4-(tetrahydro-2H-pyran-4-ylmethoxy)benzoyl]cyclopentanecarboxylic acid]",190 nM,11000 nM,,380 nM,
"Cc1ccc2nnn(C[C@@H]3CC[C@H](C(=O)c4ccc(OCCC5CCOCC5)cc4)[C@H]3C(=O)O)c(=O)c2c1 (racemic) [Example 19, (+/−)-(1RS,2SR,5RS)-2-[(6-Methyl-4-oxo-1,2,3-benzotriazin-3(4H)-yl)methyl]-5-{4-[2-(letrahydro-2H-pyran-4-yl)ethoxy]benzoyl}cyclopentanecarboxylic acid]",1400 nM,58 nM,150 nM,930 nM,7.6 nM

# More lines, now with the values ahead:
IC50 (MMP-3),IC50 (MMP-10),IC50 (mouse MMP-8),IC50 (MMP-2),IC50 (mouse MMP-12),Compound
1100 nM,120 nM,40 nM,140 nM,3.3 nM,"O=C(O)[C@H]1[C@H](Cn2nnc3ccccc3c2=O)CC[C@@H]1C(=O)c1ccc(OCC2CCOCC2)cc1 (stereo in doubt) [Example 1, (+/−)-(1RS,2SR,5RS)-2-[(4-Oxo-1,2,3-benzotriazin-3(4H)-yl)methyl]-5-[4-(tetrahydro-2H-pyran-4-ylmethoxy)benzoyl]cyclopentanecarboxylic acid]"
95 nM,9 nM,,330 nM,,"O=C(O)[C@@H]1[C@@H](Cn2nnc3ccc(C(F)(F)F)cc3c2=O)CC[C@H]1C(=O)c1ccc(SCC2CCOCC2)cc1 (single isomer, unassigned) [Example 15, (+)-(1RS,2SR,5RS)-2-{[4-Oxo-6-(trifluoromethyl)-1,2,3-benzotriazin-3(4H)-yl]methyl}-5-{4-[(tetrahydro-2H-pyran-4-ylmethyl)sulphanyl]benzoyl}cyclopentanecarboxylic acid]"
,170 nM,370 nM,360 nM,7.7 nM,"O=C(O)[C@H]1[C@H](Cn2nnc3ccccc3c2=O)CC[C@@H]1C(=O)c1ccc(OCCC2CCOCC2)cc1 (stereo in doubt) [Example 4, (+/−)-(1RS,2SR,5RS)-2-[(4-Oxo-1,2,3-benzotriazin-3(4H)-yl)methyl]-5-{4-[2-(tetrahydro-2H-pyran-4-yl)ethoxy]benzoyl}cyclopentanecarboxylic acid]"
120 nM,5100 nM,14 nM,220 nM,2.8 nM,"O=C(O)[C@H]1[C@H](Cn2nnc3ccc(C(F)(F)F)cc3c2=O)CC[C@@H]1C(=O)c1ccc(OCCC2CCOCC2)cc1 (stereo in doubt) [Example 10, (+/−)-(1RS ,2S R,5RS)-2-{[4-Oxo-6-(trifluoromethyl)-1,2,3-benzotriazin-3(4H)-yl]methyl}-5-{4-[2-(tetrahydro-2H-pyran-4-yl)ethoxy]benzoyl}cyclopentanecarboxylic acid]"
